Experimental data published in US9056865B2, “Pyridine-2-derivatives as smoothened receptor modulators” (Pfizer Inc., priority 2010, dated 2015).

Experiments:
human Smo = human Smo (Homo sapiens (Human), UniProt Q99835); assay: Smo radioligand competition binding assay; settings: for inhibition at 0.05 µM: 0.05 μM test compound, read-out: Smo % inh. @ 0.05 μM
Experimental: Smo Radioligand Competition Binding Assay
Membranes were prepared from a stable cell line created in HEK293FlpIn-TetR cells (Invitrogen) using Flp recombinase-mediated insertion of the pSecTag-FRT/V5-His vector containing a cDNA encoding amino acids […] of human Smo fused to the murine Igk leader sequence to produce a cell surface expressed Smo 181-781 protein. Hygromycin-resistant clones were obtained and stained for LacZ expression (no expression indicates a correct knock-in of fusion cDNA). LacZ-negative cells were analyzed for binding tritiated Smo antagonists. For membrane preparation, the HEK293 cells expressing Smo 181-781 were grown to 90% confluence in nine to fifteen 245 mm×245 mm×22 mm dishes, washed with Dulbecco's PBS (15 mL per dish) and harvested via scraping in 10 mL of DPBS. The cells were collected and centrifuged at 1500 rpm (400×g) for 10 min at 4° C. The cell pellets were re-suspended in 40 mL of cold DPBS and washed by centrifugation at 2300 rpm (950×g max) for 10 minutes at 4° C. The supernatant was aspirated and the cell pellet was snap frozen in a methanol/dry ice bath and stored at −70° C. For membrane preparation, 15 mL of Membrane Preparation Buffer (50 mM Tris-HCl pH 7.5, 250 mM sucrose with Roche complete protease cocktail tablets) was added to the tube containing the cell pellet, then cells are rapidly thawed, and homogenized using an Ultra-Turrax T8 (IKA Labortechnik) set on “6” for 15 seconds for 5-6 times in icy water bath. This homogenate was diluted up to 50 mL using Membrane Preparation Buffer and centrifuged at 35,000 rpm in a Beckman Ti45 rotor (140,000×g) for 35 minutes at 4° C. followed by aspiration of the supernatant and re-suspension of the pellet in 5 mL of Assay Buffer (50 mM Tris-HCl pH 7.5, 100 mM NaCl, 25 mM MgCl2, 1 mM EDTA, and 0.1% protease free bovine serum albumin). The re-suspended pellet was then homogenized in a glass tissue grinder. The re-suspended membranes were aliquoted (0.5 mL aliquots), snap frozen and stored at −70° C. Total protein in the membrane preparation was determined using the Pierce BCA protein assay (Pierce Chemical).
For the binding competition assay, 100 μL of Assay Buffer was added to all the wells of a 96 well GF/B filter plate (Millipore MultiScreen-HTS-FB cat# MSFBN6B50) for 10 minutes to pre-wet the filter prior to evacuation of the buffer (8 inches Hg for 8 seconds). To the pre-wet wells is added: 20 μL of Assay Buffer, 10 μL diluted test agent, 20 μL of a tritiated Smo antagonist (15 nM stock solution), and 50 μL of membrane preparation (40 μg total protein per well). The plates are sealed and mixed at room temperature for 5 min, incubated at room temperature for 2 hours, then washed 5 times with 100 μL/each of wash buffer and vacuum dried for 8 seconds at 8 inches Hg. The plate is then dried for one hour in a 60° C. oven prior to the addition of 45 μL of Microscint 20 (Packard, #6013621) to each well and incubation at RT for 30 minutes to 1 hour. The plate is counted in a TopCount scintillation counter (Perkin Elmer).
Data analysis uses Excel for % Inhibition and Graphpad Prism for IC50 calculation. Total binding (TB, in the absence of inhibitors)=average of tritiated Smo antagonist 3 nM+Smo membrane (40 μg/wells (approx 5000-7000 CPM)). Non-specific binding (NSB)=average of tritiated Smo antagonist (3 nM)+cold Smo antagonist (30 μM)+Smo membrane (approx 600-1200 CPM). Specific binding (SB)=(total binding−non-specific binding). % Inhibition=[1−(compound Specific binding/control Specific binding)]×100%. IC50 is calculated by fitting the data to the four parameter sigmoidal dose-response curve (variable slope) Y=Bottom+(Top-Bottom)/(1+10^((LogEC50−X)*HillSlope)). X is the logarithm of the inhibitor concentration. Y is the response; Y starts at Bottom and goes to Top with a sigmoid shape.

Gli-Luc/MEF cells = assay: Gli-Luc/MEF assay; assay type: cell-based, mouse; settings: Mus musculus, MEF; Shh-stimulated luciferase, 48 hours
Experimental: The Gli-Luc/MEF cells obtained from Gli-Luc transgenic mice contain a luciferase reporter gene under the control of the Gli response element. Luciferase activity stimulated with Sonic hedgehog ligand was inhibited by Smo inhibitors, and IC50 was subsequently calculated.
Plates were incubated at 37° C. and 5% CO2 overnight. On day two, cells were dosed with test compounds at a final concentration ranging from 3 μM to 50 μM at a 3-time series dilution. Immediately after dosing cells with compounds, recombinant mouse sonic hedgehog (Shh, R&D Systems 464-SH) was added to a final concentration of 2 μg/mL. The cells were incubated with compounds and Shh for 48 hours at 37° C. and 5% CO2. Luciferase assays were conducted on Day 4 using the Bright-Glo Luciferase assay system (Promega E2620) according to Promega's protocol. Briefly, Bright-Glo luciferase reagent was made up and 25 μL were added to each well of the 384-well plate containing media. Plates were kept at room temperature for 5 minutes, and then read on an Envision Luminescence plate reader (Perkin-Elmer). IC50 of the inhibition was calculated by using GraphPad Prism.

Chain of human Smo (Q99835 181-787): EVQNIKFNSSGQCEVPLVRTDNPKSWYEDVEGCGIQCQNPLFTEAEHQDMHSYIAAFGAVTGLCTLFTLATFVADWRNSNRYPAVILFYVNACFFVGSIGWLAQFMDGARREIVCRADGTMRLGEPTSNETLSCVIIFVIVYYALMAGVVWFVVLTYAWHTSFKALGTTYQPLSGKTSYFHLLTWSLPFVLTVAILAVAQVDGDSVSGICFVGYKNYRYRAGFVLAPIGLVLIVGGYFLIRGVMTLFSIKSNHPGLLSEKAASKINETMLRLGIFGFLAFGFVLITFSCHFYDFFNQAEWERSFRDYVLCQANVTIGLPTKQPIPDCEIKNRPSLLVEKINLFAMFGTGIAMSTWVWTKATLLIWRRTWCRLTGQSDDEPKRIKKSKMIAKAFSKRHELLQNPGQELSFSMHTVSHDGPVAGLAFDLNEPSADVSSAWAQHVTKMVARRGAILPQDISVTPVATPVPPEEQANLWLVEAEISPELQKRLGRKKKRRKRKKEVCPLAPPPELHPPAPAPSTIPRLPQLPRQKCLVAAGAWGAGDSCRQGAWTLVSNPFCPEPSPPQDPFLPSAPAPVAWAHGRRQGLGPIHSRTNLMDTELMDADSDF

| Structure (SMILES) | IC50 (human Smo) | inhibition at 0.05 µM (human Smo) | IC50 (Gli-Luc/MEF cells) |
| --- | --- | --- | --- |
| O=S(=O)(CCO)NC1CCN(c2ccc(Cl)c(-c3ccccn3)n2)CC1 [Example A-126, N-[1-(3-chloro-2,2′-bipyridin-6-yl)piperidin-4-yl]-2-hydroxyethanesulfonamide] | 15.2 nM | 96.1% | 10.3 nM |
| Cc1cccnc1-c1cc(N2CCN(c3ncc(Br)cn3)CC2)ncc1Cl [Example A-46, 2′-[4-(5-bromopyrimidin-2-yl)piperazin-1-yl]-5′-chloro-3-methyl-2,4′-bipyridine] |  | 97.6% | 21.1 nM |
| Cc1cnc(-c2cc(N3CCC(NC(=O)CCS(C)(=O)=O)CC3)ncc2Cl)c(C)c1 [Example A-122, N-[1-(5′-chloro-3,5-dimethyl-2,4′-bipyridin-2′-yl)piperidin-4-yl]-3-(methylsulfonyl)propanamide] | 14.7 nM | 103% | 5.49 nM |
| Cc1cccnc1-c1cc(N2CCC(C(=O)NCCS(C)(=O)=O)CC2)ncc1Cl [Example A-67, 1-(5′-chloro-3-methyl-2,4′-bipyridin-2′-yl)-N-[2-(methylsulfonyl)ethyl]piperidine-4-carboxamide] | 217 nM | 70.4% | 164 nM |
| Cc1cccnc1-c1cc(N2CCC(CS(C)(=O)=O)CC2)ncc1Cl [Example A-51, 5′-chloro-3-methyl-2′-{4-[(methylsulfonyl)methyl]piperidin-1-yl}-2,4′-bipyridine] | 35.8 nM | 87.8% | 23.6 nM |
| Cc1cc(F)cnc1-c1cc(N2CCC(NS(C)(=O)=O)CC2)ncc1Cl [Example A-108, N-[1-(5′-chloro-5-fluoro-3-methyl-2,4′-bipyridin-2′-yl)piperidin-4-yl]methanesulfonamide] | 20.8 nM | 91.5% | 11.2 nM |
| Cc1cnc(-c2cc(N3CCN(C(=O)CCS(C)(=O)=O)CC3)ncc2F)c(C)c1 [Example A-142, 1-[4-(5′-fluoro-3,5-dimethyl-2,4′-bipyridin-2′-yl)piperazin-1-yl]-3-(methylsulfonyl)propan-1-one] | 20.4 nM | 92.7% | 16.6 nM |
| Cc1cccnc1-c1cc(N2CCC(NC(=O)CN(C)C)CC2)ncc1Cl [Example A-31, N-(1-(5′-chloro-3-methyl-[2,4′-bipyridin]-2′-yl)piperidin-4-yl)-2-(dimethylamino)acetamide] | 43.4 nM | 89.2% | 20.8 nM |
| CS(=O)(=O)NC1CCN(c2ncc(Cl)c(-c3ccccn3)n2)CC1 [Example A-45, N-[1-(5-chloro-4-pyridin-2-ylpyrimidin-2-yl)piperidin-4-yl]methanesulfonamide] | 83.7 nM | 80.1% | 58.2 nM |
| COC(=O)N1CCN(c2cc(-c3ncc(C)cc3C)c(Cl)cn2)CC1 [Example A-101, methyl 4-(5′-chloro-3,5-dimethyl-2,4′-bipyridin-2′-yl)piperazine-1-carboxylate] | 72.4 nM | 89% | 30.2 nM |
| O=C(CCO)NC1CCN(c2ccc(Cl)c(-c3ccccn3)n2)CC1 [Example A-130, N-[1-(3-chloro-2,2′-bipyridin-6-yl)piperidin-4-yl]-3-hydroxypropanamide] |  | 81.3% | 35.5 nM |
| Cc1cccnc1-c1cc(N2CCC(C(=O)N(C)[C@@H]3CS(=O)(=O)C[C@H]3O)CC2)ncc1Cl [Example A-70, 1-(5′-chloro-3-methyl-2,4′-bipyridin-2′-yl)-N-[(3S,4S)-4-hydroxy-1,1-dioxidotetrahydro-3-thienyl]-N-methylpiperidine-4-carboxamide] | 42.4 nM | 105% | 27.3 nM |
| Cc1cccnc1-c1cc(N2CCC(C(=O)NC3CCOC4(CCN(C)CC4)C3)CC2)ncc1Cl (stereo not drawn) [Example A-84, 1-(5′-chloro-3-methyl-2,4′-bipyridin-2′-yl)-N-(9-methyl-1-oxa-9-azaspiro[5.5]undec-4-yl)piperidine-4-carboxamide] | 283 nM | 71.5% | 92 nM |
| O=S(=O)(NC1CCN(c2ccc(Cl)c(-c3ccccn3)n2)CC1)C1CC1 [Example A-133, N-[1-(3-chloro-2,2′-bipyridin-6-yl)piperidin-4-yl]cyclopropanesulfonamide] |  | 94.3% | 11.7 nM |
| Cc1cnc(-c2cc(N3CCN(C(=O)CC(C)(C)O)CC3)ncc2Cl)c(C)c1 [Example A-103, 4-[4-(5′-chloro-3,5-dimethyl-2,4′-bipyridin-2′-yl)piperazin-1-yl]-2-methyl-4-oxobutan-2-ol] | 19.4 nM | 98% | 11.7 nM |
| Cc1cccnc1-c1cc(N2CCC(NS(C)(=O)=O)CC2)ncc1Cl [Example A-8, N-[1-(5′-chloro-3-methyl-2,4′-bipyridin-2′-yl)piperidin-4-yl]methanesulfonamide] | 18.7 nM | 92% | 39.2 nM |
| Cc1cc(F)cnc1-c1cc(N2CCC(NS(=O)(=O)CCO)CC2)ncc1Cl [Example A-149, N-[1-(5′-chloro-5-fluoro-3-methyl-2,4′-bipyridin-2′-yl)piperidin-4-yl]-2-hydroxyethanesulfonamide] | 20.7 nM | 90.6% | 10.1 nM |
| Cc1cnc(-c2cc(N3CCN(S(=O)(=O)CCO)CC3)ncc2Cl)c(C)c1 [Example A-111, 2-{[4-(5′-chloro-3,5-dimethyl-2,4′-bipyridin-2′-yl)piperazin-1-yl]sulfonyl}ethanol] | 23.3 nM | 95% | 10.2 nM |
| CCS(=O)(=O)NC1CCN(c2ccc(Cl)c(-c3ccccn3)n2)CC1 [Example A-132, N-[1-(3-chloro-2,2′-bipyridin-6-yl)piperidin-4-yl]ethanesulfonamide] | 38.2 nM | 92% | 33.7 nM |
| Cc1cnc(-c2c(Cl)cnc(N3CCC(NC(=O)CCS(C)(=O)=O)CC3)c2F)c(C)c1 [Example A-139, N-(1-(5′-chloro-3′-fluoro-3,5-dimethyl-2,4′-bipyridin-2′-yl)piperidin-4-yl)-3-(methylsulfonyl)propanamide] | 17.8 nM | 101% | 1.96 nM |
| Cc1cnc(-c2ccnc(N3CCN(C(=O)CN4C[C@@H](C)O[C@@H](C)C4)CC3)c2)c(C)c1 [Example A-156, 1-[4-(3,5-dimethyl-2,4′-bipyridin-2′-yl)piperazin-1-yl]-2-[(2R,6S)-2,6-dimethylmorpholin-4-yl]ethanone] | 12.1 nM | 102% | 6.57 nM |
